Experimental data as given in US7741368B2, “Approach to antimicrobial host defense with molecular shields with EPA and DHA analogs” (The Brigham and Women's Hospital, Inc., priority 2001, dated 2010).

Test system: BPI
Settings: confluent Caco2 intestinal epithelial monolayers, 1 μM, 24 hr, β actin internal standard (FIG. 5)

Structure (SMILES): CC[C@@H](O)/C=C/C=C\C[C@@H](O)/C=C/C=C/C=C\[C@@H](O)CCCC(=O)O [5S,12R,18R-tri-HEPE]
- fold induction of BPI mRNA: BPI induction
